Assay results as given in patent publication US8362000B2, “Azetidinyl diamides as monoacylglycerol lipase inhibitors” (Janssen Pharmaceutica NV, priority 2009, dated 2013).
Numbering of substitutions follows the chain as printed. Where two headings read alike, the source gives them in different places.

Columns and labels:
MGL = target: T1, MGL (Rattus norvegicus, UniProt Q8R431); assay: 2-AG accumulation assay in rat brain homogenate; type: biochemical; conditions: rat brain homogenate, 2-AG accumulation as percent of vehicle; for 2-AG accumulation, % of vehicle control at 1 µM: compound 1 μM, read-out: Rat Brain 2AG % VehCntrl (%) @ 1 μM; for 2-AG accumulation, % of vehicle control at 10 µM: compound 10 μM, read-out: Rat Brain 2AG % VehCntrl (%) @ 10 μM
T1 construct: one g rat brain was homogenized using a Polytron homogenizer; from tissue; host or cells: rat brain homogenate
T1 sequence (Q8R431 1-303): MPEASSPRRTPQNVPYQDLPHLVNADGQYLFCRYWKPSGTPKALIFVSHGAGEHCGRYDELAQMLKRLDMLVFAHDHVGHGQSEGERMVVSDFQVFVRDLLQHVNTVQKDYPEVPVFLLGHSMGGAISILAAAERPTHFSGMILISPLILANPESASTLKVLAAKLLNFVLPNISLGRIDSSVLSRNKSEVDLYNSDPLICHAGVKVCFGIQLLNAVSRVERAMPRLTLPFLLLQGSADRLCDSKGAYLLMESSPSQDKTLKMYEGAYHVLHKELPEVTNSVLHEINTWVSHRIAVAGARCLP

mutant MGL = target: T2, mutant MGL (Homo sapiens, UniProt Q99685, L169S/L176S); assay: MGL ThermoFluor assay - mutant; type: binding
T2 sequence (Q99685 1-303 L169S/L176S): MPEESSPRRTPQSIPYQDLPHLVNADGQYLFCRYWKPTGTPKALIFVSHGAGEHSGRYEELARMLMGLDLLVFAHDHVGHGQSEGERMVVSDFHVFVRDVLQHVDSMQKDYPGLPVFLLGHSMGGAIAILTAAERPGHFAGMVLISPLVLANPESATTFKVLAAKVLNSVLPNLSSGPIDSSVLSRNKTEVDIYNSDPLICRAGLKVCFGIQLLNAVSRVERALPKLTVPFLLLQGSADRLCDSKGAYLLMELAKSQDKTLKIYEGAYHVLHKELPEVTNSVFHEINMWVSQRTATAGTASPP

[1] = target: T3, purified wild type MGL (wt-MGLL 6H-11-313) (Homo sapiens, UniProt Q99685)
T3 sequence (Q99685 1-303): T2 sequence (Q99685 1-303 L169S/L176S) with S169L, S176L

[2] = ThermoFluor concentration-response, read-out: MGL mutant ThermoFluor Kd
[3] = ThermoFluor, compound concentration measured by qNMR, read-out: MGL mutant ThermoFluor qKd (using qNMR conc.)
[4] = ThermoFluor thermal stability binding assay, read-out: MGL mutant ThermoFluor Kd
[5] = ThermoFluor, compound concentration measured by qNMR, read-out: MGL mutant ThermoFluor qKd (μM) (using qNMR conc.)

SMILES	2-AG accumulation, % of vehicle control at 1 µM (MGL)	Kd (mutant MGL; [2])	IC50 [1]	further results
O=C(c1ccc(COc2cccc(Cl)c2)cc1)N1CC(N2CCN(C(=O)c3cscn3)CC2)C1 [Cpd 959]	861%	0.044 µM	< 5 nM	–
O=C(c1ccccc1)N1CCN(C2CN(C(=O)c3ccc(S(=O)(=O)c4cccc(C(F)(F)F)c4)cc3)C2)CC1 [Cpd 508]	119%	0.162 µM	107 nM	–
Cc1cn(-c2ccc(F)c(F)c2)c2ccc(C(=O)N3CCN(C4CN(C(=O)c5nccs5)C4)CC3)cc12 [Cpd 1134, 1-(3,4-Difluorophenyl)-3-methyl-5-({4-[1-(1,3-thiazol-2-ylcarbonyl)azetidin-3-yl]piperazin-1-yl}carbonyl)-1H-indole]	774%	–	25 nM	Kd (mutant MGL; [3]): 0.009 µM
O=C(c1ccc(OCc2ccc3ccccc3n2)cc1)N1CC(N2CCN(C(=O)C(F)(F)F)CC2)C1 [Cpd 968]	360%	–	19 nM	Kd (mutant MGL; compound concentration measured by qNMR, read-out: MGL mutant ThermoFluor qKd (using qNMR conc.)): 1.46 µM
O=C(c1ccc2c(c1)CCN2Cc1ccc(C(F)(F)F)cc1)N1CC(N2CCN(C(=O)c3nccs3)CC2)C1 [Cpd 882]	697%	0.012 µM	< 5 nM	–
Cc1c(C(=O)N2CC(N3CCN(C(=O)c4nccs4)CC3)C2)[nH]c2ccc(Br)cc12 [Cpd 682]	390%	–	30 nM	Kd (mutant MGL; [3]): 0.014 µM
Cc1c(-c2ccccc2)oc2c(C(=O)N3CC(N4CCN(C(=O)c5nccs5)CC4)C3)cccc2c1=O [Cpd 476]	–	0.0667 µM	338 nM	2-AG accumulation, % of vehicle control at 10 µM (MGL): 272%
Cc1sc(C(=O)N2CC(N3CCN(C(=O)c4nccs4)CC3)C2)cc1-c1ccc(F)cc1 [Cpd 1096]	449%	–	11 nM	Kd (mutant MGL; [5]): 0.08 µM
Cn1ccc2cc(C(=O)N3CC(N4CCN(C(=O)c5nccs5)CC4)C3)cc(Br)c21 [Cpd 681]	406%	–	27 nM	Kd (mutant MGL; [5]): 0.067 µM
CC(C)Cc1ccc(C(=O)N2CC(N3CCN(C(=O)c4nccs4)CC3)C2)cc1 [Cpd 891]	422%	0.008 µM	< 5 nM	–
O=C(c1cscn1)N1CCN(C2CN(C(=O)c3ccc(-c4cccc(C(F)(F)F)c4)cc3F)C2)CC1 [Cpd 245, 1-(1-{[3-Fluoro-3′-(trifluoromethyl)biphenyl-4-yl]carbonyl}azetidin-3-yl)-4-(1,3-thiazol-4-ylcarbonyl)piperazine]	518%	–	16.4 nM	2-AG accumulation, % of vehicle control at 0.1 µM (MGL; compound 0.1 μM, read-out: Rat Brain 2AG % VehCntrl (%) @ 0.1 μM): 224%; 2-AG accumulation, % of vehicle control at 10 µM (MGL): 829%; Kd (mutant MGL; [4]): 0.0095 µM

Now from value to compound, other results behind:

2-AG accumulation, % of vehicle control at 1 µM (MGL)	Kd (mutant MGL; [2])	IC50 [1]	SMILES	further results
459%	0.006 µM	< 5 nM	O=C(c1ccc2c(-c3cccc(C(F)(F)F)c3)c[nH]c2c1)N1CC(N2CCN(C(=O)c3cscn3)CC2)C1 [Cpd 1345]	–
200%	–	27 nM	O=C(c1ccoc1)N1CCN(C2CN(C(=O)c3ccc(-c4ccccc4)cc3)C2)CC1 [Cpd 1140]	Kd (mutant MGL; [4]): 0.112 µM
558%	–	40 nM	O=C(c1nccs1)N1CCN(C2CN(C(=O)c3cccc4nc(-c5ccccc5)oc34)C2)CC1 [Cpd 1154, 2-Phenyl-7-({3-[4-(1,3-thiazol-2-ylcarbonyl)piperazin-1-yl]azetidin-1-yl}carbonyl)-1,3-benzoxazole]	Kd (mutant MGL; [4]): 0.006 µM
750%	–	< 5 nM	Cc1cc(C(=O)N2CC(N3CCN(C(=O)c4nccs4)CC3)C2)sc1-c1cccc(C(F)(F)F)c1 [Cpd 1354]	Kd (mutant MGL; [5]): 0.009 µM
394%	–	38 nM	Cc1cn(-c2ccccc2)c2ccc(C(=O)N3CC(N4CCN(C(=O)c5cscn5)CC4)C3)cc12 [Cpd 1152]	Kd (mutant MGL; [4]): 0.007 µM
241%	1.32 µM	88 nM	O=C(c1cccc(-c2ccccc2C(F)(F)F)c1)N1CC(N2CCN(C(=O)c3cscn3)CC2)C1 [Cpd 1185]	–
